Results: US20250129334A1, “LINEAGE SPECIFICATION DURING STEM CELL TRANSITION” (Amniotics AB, priority 2021, published 2025)
“Also recorded” adds a separate entry of the source. Like-named read-outs stand apart in the source and are kept apart here.

Legend:
[1] = system: HE cells; experiment: HE subculture with metabolic regulators, flow cytometry of hematopoietic output; format: cell-based, human
Text: The RB9-CB1 human iPSC line (Woods, N.-B. et al. Brief report: efficient generation of hematopoietic precursors and progenitors from human pluripotent stem cell lines. Stem Cells 29, 1158-1164 (2011)) was co-cultured with mouse embryonic fibroblasts (MEFs, Millipore), passaged every six days and processed to form embryoid bodies (EBs) as described previously (Guibentif, C. et al. Single-Cell Analysis Identifies Distinct Stages of Human Endothelial to-Hematopoietic Transition. Cell Reports 19, 10-19 (2017)). The differentiation protocol used in this study was previously described (Ditadi, A. & Sturgeon, C. M. Directed differentiation of definitive hemogenic endothelium and hematopoietic progenitors from human pluripotent stem cells. Methods 101, 65-72 (2016)), however, small modifications were made to induce both primitive and definitive hematopoiesis, as indicated below and in FIG. 6, a. Newly-formed EBs were first kept in SFD medium supplemented with 1 ng/ml Activin A (on days 0-2) and 3 μM CHIR99021 (on day 2 only). At day 3, media was switched to “Day 3-SP34” medium supplemented with 1 ng/ml Activin A (on day 3 only) and 3 μM CHIR99021 (on day 3 only) until day 6. On day 6, media was replaced by “Day 6-SP34” medium, until day 8. In some experiments where indicated, to obtain a higher yield of HSC-like cells, EBs were kept until day 10: in this case, EBs were plated onto Matrigel (8 μg/cm2, Corning)-coated dishes on day 8 and kept until day 10. Media was changed every day, except on days 5 and 7. On day 8 or 10 (as indicated), EBs were singularized with 5-6 rounds of 5-minute incubations with TryPLE Express (Thermo Fisher Scientific). CD34^+ cells were selected using the human CD34 MicroBead kit (Miltenyi Biotec) and stained with CD34-FITC, CD73-PE, VECad-PerCPCy5.5, CD38-PC7, CD184-APC, CD45-AF700, CD43-APCH7, GPA-eF450, CD90-BV605 and the viability marker 7AAD in order to sort HE (CD34^+CD43^−CXCR4^−CD73^−CD90^+VECad^+), EHT (CD34^+CD43^intCXCR4^−CD73^−CD90^+VECad^+) and HSC-like (CD34^+CD43^+CD90^+CD38^−) cells, according to previously described markers (Guibentif, C. et al. Single-Cell Analysis Identifies Distinct Stages of Human Endothelial to-Hematopoietic Transition. Cell Reports 19, 10-19 (2017); Ditadi, A. et al. Human definitive haemogenic endothelium and arterial vascular endothelium represent distinct lineages. Nat Cell Biol 17, 580-591 (2015); and Choi, K.-D. et al. Identification of the Hemogenic Endothelial Progenitor and Its Direct Precursor in Human Pluripotent Stem Cell Differentiation Cultures. Cell Reports 2, 553-567 (2012)).
Sorted HE (40,000), EHT (30,000) and HSC-like (5-20,000) cells were plated onto Matrigel (16 μg/cm2, Corning)-coated 96-well flat bottom plates in HE medium with 1% penicillin-streptomycin and kept in a humidified incubator at 37° C., 5% C02, 4% 02 overnight. The following day (day 0), wells were washed twice with PBS and fresh HE medium was added, together with 2-DG (1 mM), UK5099 (10 μM), DCA (3 mM or 10 mM), TSA (60 nM), TCP (300 nM), ACSS2i (5 μM), C646 (10 μM), CP-640186 (5 μM) or Atorvastatin (0.5 μM), where indicated. Media was changed and drugs were added every 2 days and cells were kept in a humidified incubator at 37° C., 5% CO2, 20% O2 for 6-7 days. Pictures were taken using an Olympus IX70 microscope equipped with a CellSens DP72 camera and CellSens Standard 1.6 software (Olympus). For single cell subcultures, single HE cells were directly sorted with a BD FACSAriaIII onto OP9-DL1 stroma in flat-bottom 96-well plates with 120 μl OP9 medium (OptiMEM medium with Glutamax (Invitrogen) with 10% FCS, 1% penicillin-streptomycin solution (Thermo Fisher Scientific) and 1% 2-mercaptoethanol (Invitrogen)) with SCF, IL-6, IL-11, IGF1 and EPO, and with or without 10 μM UK, or 3 mM or 10 mM DCA. The cells were kept in a humidified incubator at 37° C., 5% CO2, 4% O2 and media was replaced every 4 days. […]

[2] = system: EHT cells; experiment: EHT cell subculture with metabolic regulators, flow cytometry; format: cell-based, human; conditions: EHT cells; day 3; 2-DG 1 mM
Text: The RB9-CB1 human iPSC line (Woods, N.-B. et al. Brief report: efficient generation of hematopoietic precursors and progenitors from human pluripotent stem cell lines. Stem Cells 29, 1158-1164 (2011)) was co-cultured with mouse embryonic fibroblasts (MEFs, Millipore), passaged every six days and processed to form embryoid bodies (EBs) as described previously (Guibentif, C. et al. Single-Cell Analysis Identifies Distinct Stages of Human Endothelial to-Hematopoietic Transition. Cell Reports 19, 10-19 (2017)). The differentiation protocol used in this study was previously described (Ditadi, A. & Sturgeon, C. M. Directed differentiation of definitive hemogenic endothelium and hematopoietic progenitors from human pluripotent stem cells. Methods 101, 65-72 (2016)), however, small modifications were made to induce both primitive and definitive hematopoiesis, as indicated below and in FIG. 6, a. Newly-formed EBs were first kept in SFD medium supplemented with 1 ng/ml Activin A (on days 0-2) and 3 μM CHIR99021 (on day 2 only). At day 3, media was switched to “Day 3-SP34” medium supplemented with 1 ng/ml Activin A (on day 3 only) and 3 μM CHIR99021 (on day 3 only) until day 6. On day 6, media was replaced by “Day 6-SP34” medium, until day 8. In some experiments where indicated, to obtain a higher yield of HSC-like cells, EBs were kept until day 10: in this case, EBs were plated onto Matrigel (8 μg/cm2, Corning)-coated dishes on day 8 and kept until day 10. Media was changed every day, except on days 5 and 7. On day 8 or 10 (as indicated), EBs were singularized with 5-6 rounds of 5-minute incubations with TryPLE Express (Thermo Fisher Scientific). […]

[3] = system: HSC-like cells; experiment: HSC-like cell subculture with metabolic regulators, flow cytometry; format: cell-based, human; conditions: day 3, 2-DG 1 mM
Text: The RB9-CB1 human iPSC line (Woods, N.-B. et al. Brief report: efficient generation of hematopoietic precursors and progenitors from human pluripotent stem cell lines. Stem Cells 29, 1158-1164 (2011)) was co-cultured with mouse embryonic fibroblasts (MEFs, Millipore), passaged every six days and processed to form embryoid bodies (EBs) as described previously (Guibentif, C. et al. Single-Cell Analysis Identifies Distinct Stages of Human Endothelial to-Hematopoietic Transition. Cell Reports 19, 10-19 (2017)). The differentiation protocol used in this study was previously described (Ditadi, A. & Sturgeon, C. M. Directed differentiation of definitive hemogenic endothelium and hematopoietic progenitors from human pluripotent stem cells. Methods 101, 65-72 (2016)), however, small modifications were made to induce both primitive and definitive hematopoiesis, as indicated below and in FIG. 6, a. Newly-formed EBs were first kept in SFD medium supplemented with 1 ng/ml Activin A (on days 0-2) and 3 μM CHIR99021 (on day 2 only). At day 3, media was switched to “Day 3-SP34” medium supplemented with 1 ng/ml Activin A (on day 3 only) and 3 μM CHIR99021 (on day 3 only) until day 6. On day 6, media was replaced by “Day 6-SP34” medium, until day 8. […]

[4] = system: iPSC-CD34+; experiment: NK cell cytotoxic degranulation (CD107) with or without K562 co-culture; format: cell-based, human; conditions: for degranulated NK cells (CD3-CD56+CD16+CD107+ cells) / increase in degranulated NK cells vs untreated control / basal degranulation: absence of K562; for degranulated NK cells (CD3-CD56+CD16+CD107+ cells) / increase in degranulated NK cells vs untreated control: DCA 10 mM, CP 2.5 μM, cholesterol 0.5x; for basal degranulation: vs ctrl; for level of degranulated NK cells when exposed to K562 cells: co-culture with K562
Text: NK cell anti-tumour activity can occur via cytotoxic degranulation. CD107 is a marker that is present in the cytotoxic vesicles of NK cells, and so is not expressed on the cell surface of inactivated NK cells. However, upon NK cell activation and degranulation, the CD107 target becomes detectable on the cell surface. Therefore, the level of CD107 detected on NK cells correlates with cytotoxic degranulation. In this assay, several exemplary metabolic regulators were used to assess cytotoxic degranulation in a co-culture assay with K562 cells (an exemplary cancer cell model). As a negative control, iPSC-CD34^+ untreated with a metabolic regulator were used, in which a basal level of 3.27% of degranulated NK cells (CD3^−CD56^+CD16^+CD107^+ cells) were observed (FIG. 16A, top panel).

[5] = system: HE, EHT and HSC-like cells; conditions: 100 μM FCCP; all cell types
Procedure: On days 3 and 6 of subculture, cells were collected after a 2-minute incubation at 37° C. with StemPro Accutase Cell Dissociation Reagent and stained with CD34-FITC, CD14-PE, CD33-PC7, CD11b-APC, CD45-AF700, CD43-APCH7, GPA-eF450, CD90-BV605 and the viability marker 7AAD and fluorescence was measured on a BD LSRII. To measure mitochondrial activity, cells were incubated with Tetramethylrhodamine ethyl ester (TMRE, 20 nM) for 30 minutes at 37° C. Negative controls were incubated with 100 μM FCCP for 30 minutes at 37° C., prior to TMRE staining. […] III and MFI levels—MFI FMO were calculated. […] III. To measure proliferation, cells were processed with the CellTrace Violet (CTV) kit according to manufacturer's instructions (10-minute incubation) and fluorescence was measured on a BD LSRFortessa. To measure EdU incorporation, HE cells were assessed on day 1 or 2 of subculture after 24 h EdU pulses, using Click-iT EdU Flow Cytometry Cell Proliferation Assay (Thermo Fisher Scientific, C10424), according to manufacturer's instructions. Flow cytometry outputs were analyzed on FlowJo Software, with initial gatings on SSC-A/FSC-A, FSC-H/FSC-A, SSC-H/SSC-A and 7-AAD to exclude doublets and dead cells in all experiments.

[6] = day 6, single agent vs control (1-AA 4 mM, TCP 300 nM, C646 10 μM, CP 5 μM, shRNAs vs shScr)

N[C@@H]1C[C@H]1c1ccccc1 (racemic) [TCP, Tranylcypromine]
HE-derived CD43+CD45+ (CD45+) cell population [1]: more
increase in CD43+GPA+ cell frequency following UK5099 treatment when LSD1 is blocked or downregulated [1]: could not detect an increase
myeloid differentiation (CD43+CD45+CD33+CD11b+) [1]: specifically increased myeloid differentiation

O=CC[C@@H](O)[C@H](O)[C@H](O)CO [2-DG, 2-Deoxy-D-glucose]
CD43+GPA+ cell population ([1]; day 3, 2-DG 1 mM): less than 50 % of the control
CD43+ cell output from HE cells ([1]; day 3 of subculture, 2-DG 1 mM): significantly reduced
CD43+CD45+ cell population ([1]; day 6, 2-DG 1 mM): less than 50 % of the control
proliferation rate (CellTrace Violet) [2]: significantly reduced
proliferation rate (CellTrace Violet) [3]: significantly reduced

COCCNC(=O)Nc1ccc2nc(-c3cccs3)c(-c3cccs3)nc2c1 [ACSS2i]
DCA effect on CD43+CD45+ cells under co-treatment ([1]; day 6 of HE subculture, ACSS2i 5 μM with DCA 3 mM): did not perturb the DCA effect

CC1=NN(c2ccc(C(=O)O)cc2)C(=O)/C1=C/C1=CC=C(c2cc(C)c(C)cc2[NH+]([O-])O)C1 (stereo not shown) [C646]
HE-derived CD43+CD45+ (CD45+) cell population [1, 6]: did not have an effect

O=C(c1c2ccccc2cc2ccccc12)N1CCC(N2CCCC(C(=O)N3CCOCC3)C2)CC1 (stereo not shown) [CP]
HE-derived CD43+CD45+ (CD45+) cell population [1, 6]: had the same effect as DCA
degranulated NK cells (CD3-CD56+CD16+CD107+ cells) [4]: 18.3 % of the population
increase in degranulated NK cells vs untreated control [4]: more than 5 fold
basal degranulation [4]: higher than ctrl
level of degranulated NK cells when exposed to K562 cells [4]: further increased; also recorded: increased degranulation

N#CC(C#N)=NNc1ccc(OC(F)(F)F)cc1 [FCCP, Carbonyl cyanide 4-(trifluoromethoxy)phenylhydrazone]
TMRE signal [5]: abrogated the TMRE signal

CC(/C=C/C(=O)NO)=C\[C@@H](C)C(=O)c1ccc(N(C)C)cc1 [TSA, Trichostatin A]
emergence of CD43+ hematopoietic cells ([1]; day 3, TSA 60 nM): impaired the emergence

CC(C)c1c(C(=O)Nc2ccccc2)c(-c2ccccc2)c(-c2ccc(F)cc2)n1CC[C@@H](O)C[C@@H](O)CC(=O)O [atorvastatin]
DCA effect on CD43+CD45+ cells under co-treatment ([1]; day 3, Ato 0.5 μM with DCA 3 mM): abrogated the effect of DCA

CC(C)CCC[C@@H](C)[C@H]1CC[C@H]2[C@@H]3CC=C4C[C@@H](O)CC[C@]4(C)[C@H]3CC[C@]12C [cholesterol]
degranulated NK cells (CD3-CD56+CD16+CD107+ cells) [4]: 7.47 % of the population
increase in degranulated NK cells vs untreated control [4]: more than 2 fold
basal degranulation [4]: higher than ctrl
level of degranulated NK cells when exposed to K562 cells [4]: further increased; also recorded: except for Cholesterol treated cells
